The source of these data is patent US20230000870A1, “METHODS OF TREATING CANCER IN BIOMARKER-IDENTIFIED PATIENTS WITH INHIBITORS OF CYCLIN-DEPENDENT KINASE 7 (CDK7)” (Syros Pharmaceuticals, Inc., priority 2019, published 2023).

Test [1] deals with T1, CDK12 (aa686-1082)/Cyclin K complex (Homo sapiens, UniProt Q9NYV4).
T1 construct: CDK12 (aa686-1082)/Cyclin K complex
Description: CDK12 kinase inhibition assay (Caliper/LabChip EZ Reader). Type of test: biochemical. The following applies: CDK12 (aa686-1082)/Cyclin K 50 nM, ATP 2 mM, 3 hr at 27° C. In short, it runs like this:
(§1)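 Caliper/LabChip mobility-shift kinase assays at 27° C. CDK9/Cyclin T1 8 nM with 2 μM 5-FAM-CDK9tide, 10 mM MgCl2, 15 min; CDK12/Cyclin K 50 nM with 5-FAM-CDK9tide 2 μM, 2 mM MgCl2, 3 hr; CDK2/Cyclin E1 0.5 nM with 5-FAM-CDK7tide 2 μM, 2 mM MgCl2, 35 min; CDK7 35 min.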

In test [2] the target is CDK7/Cyclin H/MAT1 complex (Homo sapiens, UniProt P50613). The test is described as follows: CDK7 kinase inhibition assay (Caliper/LabChip EZ Reader). Format: biochemical. The following applies: CDK7/Cyclin H/MAT1 6 nM, ATP 2 mM, 35 min at 27° C. In short, it runs like this:
as §1

A further test addresses CDK2/Cyclin E1 complex (Homo sapiens, UniProt P24941). Description: CDK2 kinase inhibition assay (Caliper/LabChip EZ Reader). Type of test: biochemical. The conditions noted are these: CDK2/Cyclin E1 0.5 nM, ATP 2 mM, 35 min at 27° C. In short, it runs like this: as §1
The next test relates to HCC70 cells. Description: Inhibition of proliferation of HCC70 cells (CyQUANT Direct, 72 hour). Type of test: cell-based, human. The conditions noted are these: read-out: Inhibition of Proliferation of HCC70 Cells (calculated IC50). An outline of the steps:
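Human triple-negative breast cancer cells grown in RPMI-1640 + 10% FBS at 37 °C, 5% CO2, treated with compounds from 4 μM to […] in 0.5 log steps. Proliferation over 72 h was read by CyQUANT Direct.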

For another test, the system named is A673 cells. Description: Inhibition of proliferation of A673 cells (CyQUANT, 72 hour). Format: cell-based, human. The conditions noted are these: read-out: Inhibition of Proliferation of A673 Cells (calculated IC50). An outline of the steps: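 Human Ewing's sarcoma A673 cells in DMEM + 10% FBS + 1 mM sodium pyruvate, 37 °C, 5% CO2. Compounds in 0.5-log serial dilutions, stated range 4 μM to […], for 72 h. Anti-proliferative effect read with CyQUANT per kit directions.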

In the next test the target is CDK9/Cyclin T1 complex (Homo sapiens, UniProt P50750). Description: CDK9 kinase inhibition assay (Caliper/LabChip EZ Reader). Type of test: biochemical. The conditions noted are these: CDK9/Cyclin T1 8 nM, ATP 2 mM, 15 min at 27° C. An outline of the steps:
as §1

Molecules are shown by their SMILES.

Sequence of CDK9/Cyclin T1 complex (P50750 whole entry): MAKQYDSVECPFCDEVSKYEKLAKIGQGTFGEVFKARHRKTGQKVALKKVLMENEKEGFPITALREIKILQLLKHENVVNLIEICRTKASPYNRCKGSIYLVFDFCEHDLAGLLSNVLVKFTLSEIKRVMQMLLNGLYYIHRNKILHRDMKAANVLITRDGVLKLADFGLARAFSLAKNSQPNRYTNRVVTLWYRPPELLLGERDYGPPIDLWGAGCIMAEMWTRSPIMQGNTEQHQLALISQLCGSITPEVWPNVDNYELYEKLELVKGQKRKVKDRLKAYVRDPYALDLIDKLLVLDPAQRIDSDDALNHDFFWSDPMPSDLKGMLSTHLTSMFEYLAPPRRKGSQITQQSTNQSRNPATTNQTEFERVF
Sequence of CDK9/Cyclin T1 complex (O60563 whole entry partner): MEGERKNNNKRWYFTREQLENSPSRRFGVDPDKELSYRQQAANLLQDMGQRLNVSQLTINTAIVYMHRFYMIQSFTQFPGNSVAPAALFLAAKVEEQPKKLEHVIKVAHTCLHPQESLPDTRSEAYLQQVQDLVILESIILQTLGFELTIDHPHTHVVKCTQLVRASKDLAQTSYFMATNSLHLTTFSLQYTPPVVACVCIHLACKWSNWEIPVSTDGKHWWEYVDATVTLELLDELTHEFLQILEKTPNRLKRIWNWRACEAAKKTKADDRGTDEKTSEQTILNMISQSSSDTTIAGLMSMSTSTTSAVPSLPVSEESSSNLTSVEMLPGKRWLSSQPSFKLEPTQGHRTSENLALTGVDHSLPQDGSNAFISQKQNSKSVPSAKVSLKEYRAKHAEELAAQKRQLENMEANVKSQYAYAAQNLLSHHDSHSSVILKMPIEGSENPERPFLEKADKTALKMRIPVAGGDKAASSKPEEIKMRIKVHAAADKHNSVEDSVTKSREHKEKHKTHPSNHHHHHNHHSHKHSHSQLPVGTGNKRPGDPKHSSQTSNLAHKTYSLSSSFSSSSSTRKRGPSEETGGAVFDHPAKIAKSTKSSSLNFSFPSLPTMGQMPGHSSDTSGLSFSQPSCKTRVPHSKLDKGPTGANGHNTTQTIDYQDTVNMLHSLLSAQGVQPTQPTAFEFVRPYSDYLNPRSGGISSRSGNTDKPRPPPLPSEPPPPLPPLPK
T1 sequence (Q9NYV4 686-1082): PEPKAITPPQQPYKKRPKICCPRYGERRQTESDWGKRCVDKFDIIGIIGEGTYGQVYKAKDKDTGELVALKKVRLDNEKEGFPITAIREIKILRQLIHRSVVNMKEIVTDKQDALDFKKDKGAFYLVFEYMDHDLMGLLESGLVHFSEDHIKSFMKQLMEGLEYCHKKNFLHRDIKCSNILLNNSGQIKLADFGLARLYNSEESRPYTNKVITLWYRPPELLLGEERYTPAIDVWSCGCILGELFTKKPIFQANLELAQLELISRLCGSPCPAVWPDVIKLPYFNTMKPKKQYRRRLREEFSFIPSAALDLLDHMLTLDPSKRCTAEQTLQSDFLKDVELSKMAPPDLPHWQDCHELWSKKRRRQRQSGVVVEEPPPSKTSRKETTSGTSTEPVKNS
T1 sequence (O75909 whole entry partner, the tested form may be a part): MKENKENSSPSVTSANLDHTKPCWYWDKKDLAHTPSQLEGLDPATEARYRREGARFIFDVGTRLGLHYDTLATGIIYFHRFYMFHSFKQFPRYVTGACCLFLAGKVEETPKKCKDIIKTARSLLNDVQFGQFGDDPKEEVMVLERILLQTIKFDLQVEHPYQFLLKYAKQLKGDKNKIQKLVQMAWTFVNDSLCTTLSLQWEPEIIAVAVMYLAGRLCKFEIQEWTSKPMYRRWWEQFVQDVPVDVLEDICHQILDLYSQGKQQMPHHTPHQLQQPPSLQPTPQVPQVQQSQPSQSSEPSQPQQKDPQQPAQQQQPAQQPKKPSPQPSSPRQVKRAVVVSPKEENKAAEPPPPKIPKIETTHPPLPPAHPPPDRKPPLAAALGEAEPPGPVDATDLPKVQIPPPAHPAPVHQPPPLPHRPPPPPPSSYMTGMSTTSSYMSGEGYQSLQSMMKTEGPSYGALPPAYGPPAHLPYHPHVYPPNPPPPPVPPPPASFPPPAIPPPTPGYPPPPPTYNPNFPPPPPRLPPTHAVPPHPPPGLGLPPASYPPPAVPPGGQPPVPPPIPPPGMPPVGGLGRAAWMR
Sequence of CDK7/Cyclin H/MAT1 complex (P50613 whole entry): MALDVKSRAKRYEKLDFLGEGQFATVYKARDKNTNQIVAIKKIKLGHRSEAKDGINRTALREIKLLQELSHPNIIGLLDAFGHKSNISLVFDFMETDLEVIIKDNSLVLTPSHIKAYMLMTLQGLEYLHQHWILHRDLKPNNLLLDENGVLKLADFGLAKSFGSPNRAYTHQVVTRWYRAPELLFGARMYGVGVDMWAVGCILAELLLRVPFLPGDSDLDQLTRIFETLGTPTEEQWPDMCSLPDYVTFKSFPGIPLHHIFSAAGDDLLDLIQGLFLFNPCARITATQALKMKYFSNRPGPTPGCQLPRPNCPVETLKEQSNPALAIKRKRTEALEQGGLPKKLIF
Sequence of CDK7/Cyclin H/MAT1 complex (P51946 whole entry partner): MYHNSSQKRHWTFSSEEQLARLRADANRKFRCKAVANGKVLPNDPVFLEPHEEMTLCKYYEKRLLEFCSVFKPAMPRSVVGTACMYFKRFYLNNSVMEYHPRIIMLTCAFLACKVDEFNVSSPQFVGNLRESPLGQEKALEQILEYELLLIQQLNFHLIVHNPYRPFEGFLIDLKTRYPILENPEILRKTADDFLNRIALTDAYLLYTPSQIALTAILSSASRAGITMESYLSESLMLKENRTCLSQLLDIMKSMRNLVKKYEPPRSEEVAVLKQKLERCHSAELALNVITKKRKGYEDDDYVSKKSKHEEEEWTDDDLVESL
Sequence of CDK7/Cyclin H/MAT1 complex (P51948 whole entry partner): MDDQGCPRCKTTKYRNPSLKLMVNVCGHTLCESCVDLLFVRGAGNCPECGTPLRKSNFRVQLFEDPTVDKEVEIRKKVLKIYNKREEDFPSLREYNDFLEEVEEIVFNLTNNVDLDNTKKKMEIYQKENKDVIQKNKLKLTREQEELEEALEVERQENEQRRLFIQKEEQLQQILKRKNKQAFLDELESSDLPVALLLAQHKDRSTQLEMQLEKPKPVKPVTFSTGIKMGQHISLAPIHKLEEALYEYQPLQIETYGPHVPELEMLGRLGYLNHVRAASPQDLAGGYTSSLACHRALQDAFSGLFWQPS

Turning to `Cn1cc(-c2nc(NC3CCCNC3)ncc2C(F)(F)F)c2cccc(C#N)c21` (stereo not drawn) [Compound 279], the IC50 in test [1] is at least 5000 nM; in test [2] it was 20 to 200 nM; against CDK2/Cyclin E1 complex, at least 5000 nM; with HCC70 cells it was 1000 to 5000 nM; in the test with A673 cells, 200 to 5000 nM; against CDK9/Cyclin T1 complex, at least 5000 nM.
As for `CS(=O)(=O)c1c(C#N)ccc2c(-c3nc(N[C@H]4CCCNC4)ncc3C(F)(F)F)c[nH]c12` [Compound 232], the IC50 in test [1] was 200 to 5000 nM; in test [2], under 20 nM; against CDK2/Cyclin E1 complex, 200 to 5000 nM; with HCC70 cells, under 100 nM; in the test with A673 cells it was under 20 nM; at CDK9/Cyclin T1 complex, 200 to 5000 nM.
In the case of `CCc1cnc(NC2CCCNC2)nc1-c1c[nH]c2cc(C#N)ccc12` (stereo not drawn) [Compound 246], the IC50 is at least 5000 nM in test [1]; under 20 nM in test [2]; at least 5000 nM on CDK2/Cyclin E1 complex; 100 to 1000 nM in the test with HCC70 cells; 200 to 5000 nM in the test on A673 cells; at least 5000 nM at CDK9/Cyclin T1 complex.
For the compound `CCc1cnc(NC2CCCNC2)nc1-c1c[nH]c2c(F)cccc12` (stereo not drawn) [Compound 144], the IC50 was 200 to 5000 nM in test [1]; under 20 nM in test [2]; 200 to 5000 nM against CDK2/Cyclin E1 complex; 100 to 1000 nM in the test with HCC70 cells; 20 to 200 nM in the test on A673 cells; 200 to 5000 nM against CDK9/Cyclin T1 complex.
As to `CC(C)c1cnc(NC2CCCNC2)nc1-c1c[nH]c2ccccc12` (stereo not drawn) [Compound 139], the IC50 in test [1] was at least 5000 nM; in test [2] it was 20 to 200 nM; against CDK2/Cyclin E1 complex, at least 5000 nM; in the test on HCC70 cells it was 1000 to 5000 nM; in the test on A673 cells, 200 to 5000 nM; on CDK9/Cyclin T1 complex it was at least 5000 nM.
As for `CS(=O)(=O)c1ccc2c(-c3nc(NC4CCCNC4)ncc3C(F)(F)F)c[nH]c2c1` (stereo not drawn) [Compound 199], the IC50 in test [1] is 200 to 5000 nM; in test [2], under 20 nM; on CDK2/Cyclin E1 complex, 200 to 5000 nM; in the test with HCC70 cells it was 100 to 1000 nM; in the test on A673 cells, under 20 nM; against CDK9/Cyclin T1 complex, 200 to 5000 nM.
As to `FC(F)(F)c1cnc(NC2CCCNC2)nc1-c1c[nH]c2c(-c3ccnnc3)cccc12` (stereo not drawn) [Compound 180], the IC50 in test [1] is 20 to 200 nM; in test [2] it was under 20 nM; against CDK2/Cyclin E1 complex it was 20 to 200 nM; in the test with HCC70 cells it was under 100 nM; with A673 cells it was under 20 nM; on CDK9/Cyclin T1 complex, 200 to 5000 nM.
In the case of `N#Cc1ccc2c(-c3nc(NC4CCCNC4)ncc3C(F)(F)F)c[nH]c2n1` (stereo not drawn) [Compound 251], the IC50 in test [1] was 200 to 5000 nM; in test [2], under 20 nM; on CDK2/Cyclin E1 complex it was 200 to 5000 nM; in the test on HCC70 cells, under 100 nM; in the test on A673 cells it was under 20 nM; against CDK9/Cyclin T1 complex, 200 to 5000 nM.
